The test system of data set [1] is HCoV-229E. The experiment in a line: anti-HCoV-229E activity in Huh7 cells by cytopathic effect (CPE) assay. The class given is cell-based, Human coronavirus HCoV-229E. The following applies: Human coronavirus 229E, Huh-7, HCoV-229E 100 TCID50 in Huh7 cells, about 48 h.
The nature of data set [2]: in vitro. The settings on record: human.
For data set [3], the system named is HCoV-229E. The experiment in a line: anti-HCoV-229E activity in Huh7.5 cells by cytopathic effect (CPE) assay. The following applies: Human coronavirus 229E, HCoV-229E 100 TCID50 in Huh7.5 cells, about 48 h. Format: cell-based, Human coronavirus HCoV-229E.
Data set [4] is described as follows: in vitro. The following applies: human. This is another data set of the same source.

Each structure is given as a SMILES string.

On to `Cn1c(=O)c2c(nc(NCCO)n2Cc2ccc(F)cc2)n(C)c1=O` [IMB-2-2, 7-(4-fluorobenzyl)-8-((2-hydroxyethyl)amino)-1,3-dimethyl-3,7-dihydro-1H-purine-2,6-dione], for which the midpoint of the response in data set [1], the EC50, lay at 3.15 µM. In data set [2], this compound showed a CC50 of over 200 µM.

Regarding `Cn1c(=O)c2c(nc(NCCO)n2Cc2ccc(OC(F)(F)F)cc2)n(C)c1=O` [IMB-2-3, 8-((2-hydroxyethyl)amino)-1,3-dimethyl-7-(4-(trifluoromethoxy)benzyl)-3,7-dihydro-1H-purine-2,6-dione], the results for the EC50 in data set [1] and in data set [3] were 11.4 µM and 4.79 µM, respectively. The CC50 in data set [2] and in data set [4] was over 242 µM each time.

Compound `Cn1c(=O)c2c(nc(NCCO)n2Cc2ccccc2Br)n(C)c1=O` [IMB-2-6, 7-(2-bromobenzyl)-8-((2-hydroxyethyl)amino)-1,3-dimethyl-3,7-dihydro-1H-purine-2,6-dione] came in with an EC50 in data set [1] of 12.8 µM. In data set [2], this compound returned a CC50 of over 200 µM.

`COc1cccc(Cn2c(-n3ccnc3)nc3c2c(=O)n(C)c(=O)n3C)c1` [IMB-2-26, 8-(1H-imidazol-1-yl)-7-(3-methoxybenzyl)-1,3-dimethyl-3,7-dihydro-1H-purine-2,6-dione] came in with an EC50 in data set [1] of 38.5 µM. The compound further gave a CC50 in data set [2] of over 200 µM.

Regarding `COc1cccc(Cn2c(N3CCN(c4ccc(F)cc4)CC3)nc3c2c(=O)n(C)c(=O)n3C)c1` [IMB-2-31, 8-(4-(4-fluorophenyl)piperazin-1-yl)-7-(3-methoxybenzyl)-1,3-dimethyl-3,7-dihydro-1H-purine-2,6-dione], the response in data set [1] was half-maximal at 38.5 µM (EC50). The compound also returned a CC50 in data set [2] of over 200 µM.

With `COC(=O)c1ccc2c(ccn2-c2nc3c(c(=O)n(C)c(=O)n3C)n2Cc2cccc(OC)c2)c1` [IMB-2-32, Methyl-1-(7-(3-methoxybenzyl)-1,3-dimethyl-2,6-dioxo-2,3,6,7-tetrahydro-1H-purin-8-yl)-1H-indole-5-carboxylate], the EC50 in data set [1] was determined as 5.75 µM. Further, the CC50 in data set [2] was found to be 51.7 µM.

On to `COc1cccc(Cn2c(NCCO)nc3c2c(=O)n(CC2CCOCC2)c(=O)n3C)c1` [IMB-3-6, 8-((2-hydroxyethyl)amino)-7-(3-methoxybenzyl)-3-methyl-1-((tetrahydro-2H-pyran-4-yl)methyl)-3,7-dihydro-1H-purine-2,6-dione], for which, in data set [2], the CC50 is over 200 µM.

The compound `COc1cccc(Cn2c(NCCO)nc3c2c(=O)n(Cc2ccc(F)cc2)c(=O)n3C)c1` [IMB-3-13, 1-(4-fluorobenzyl)-8-((2-hydroxyethyl)amino)-7-(3-methoxybenzyl)-3-methyl-3,7-dihydro-1H-purine-2,6-dione] came in with an EC50 in data set [1] of 17.2 µM. Besides, in data set [2], the CC50 is 46.2 µM.

`COc1ccc(Cn2c(=O)c3c(nc(NCCO)n3Cc3cccc(OC)c3)n(C)c2=O)cc1` [IMB-3-15, 8-((2-hydroxyethyl)amino)-7-(3-methoxybenzyl)-1-(4-methoxybenzyl)-3-methyl-3,7-dihydro-1H-purine-2,6-dione] registered an EC50 in data set [1] of 17.2 µM. Besides, the CC50 in data set [2] is over 200 µM.

In data set [1], `COc1cccc(Cn2c(NCCO)nc3c2c(=O)n(Cc2ccncc2)c(=O)n3C)c1` [IMB-3-16, 8-((2-hydroxyethyl)amino)-7-(3-methoxybenzyl)-3-methyl-1-(pyridin-4-ylmethyl)-3,7-dihydro-1H-purine-2,6-dione] yielded an EC50 of 22.2 µM. The same compound returned a CC50 in data set [2] of 115 µM.

As for `CCn1c(=O)c2c(nc(Br)n2Cc2cccc(OC)c2)n(C)c1=O` [IMB-3-30, 8-bromo-1-ethyl-7-(3-methoxybenzyl)-3-methyl-3,7-dihydro-1H-purine-2,6-dione], the EC50 in data set [1] amounted to 4.28 µM. For the same compound, in data set [2], the CC50 is 155 µM.

As for `C#CCCn1c(=O)c2c(nc(NCCO)n2Cc2cccc(OC)c2)n(C)c1=O` [IMB-3-45, 1-(but-3-yn-1-yl)-8-((2-hydroxyethyl)amino)-7-(3-methoxybenzyl)-3-methyl-3,7-dihydro-1H-purine-2,6-dione], the response in data set [1] was half-maximal at 66.7 µM (EC50). Moreover, in data set [2], the CC50 is over 200 µM.

In data set [1], `CCn1c(=O)c2c(nc(NCCO)n2Cc2cccc(OC)c2)n(C)c1=O` [IMB-3-46, ethyl-8-((2-hydroxyethyl)amino)-7-(3-methoxybenzyl)-3-methyl-3,7-dihydro-1H-purine-2,6-dione] returned an EC50 of 155 µM. The same compound registered a CC50 in data set [2] of over 200 µM.

`CCCn1c(=O)c2c(nc(NCCO)n2Cc2cccc(OC)c2)n(C)c1=O` [IMB-3-47, 8-((2-hydroxyethyl)amino)-7-(3-methoxybenzyl)-3-methyl-1-propyl-3,7-dihydro-1H-purine-2,6-dione]: in data set [1], a half-maximal effect (EC50) was put at 85.9 µM. The compound also registered a CC50 in data set [2] of over 200 µM.

As for `COc1cccc(Cn2c(NCCO)nc3c2c(=O)n(CCNC(=O)OC(C)(C)C)c(=O)n3C)c1` [IMB-3-57, tert-butyl(2-(8-((2-hydroxyethyl)amino)-7-(3-methoxybenzyl)-3-methyl-2,6-dioxo-2,3,6,7-tetrahydro-1H-purin-1-yl)ethyl)carbamate], the EC50 in data set [1] stood at 66.7 µM. In data set [2], this compound gave a CC50 of over 200 µM.

For `COc1cccc(Cn2c(NCCO)nc3c2c(=O)n(CCCNC(=O)OC(C)(C)C)c(=O)n3C)c1` [IMB-3-58, tert-butyl(3-(8-((2-hydroxyethyl)amino)-7-(3-methoxybenzyl)-3-methyl-2,6-dioxo-2,3,6,7-tetrahydro-1H-purin-1-yl)propyl)carbamate], the 50% effective concentration (EC50) in data set [1] was determined as 66.7 µM. The compound further gave a CC50 in data set [2] of over 200 µM.

In turn, `C=CCn1c(=O)c2c(nc(NCCO)n2Cc2cccc(OC)c2)n(C)c1=O` [IMB-3-71, allyl-8-((2-hydroxyethyl)amino)-7-(3-methoxybenzyl)-3-methyl-3,7-dihydro-1H-purine-2,6-dione] displayed an EC50 in data set [1] of 38.5 µM. This compound also displayed a CC50 in data set [2] of 115 µM.

Compound `C#CCn1c(=O)c2c(nc(NCCO)n2Cc2cccc(OC)c2)n(C)c1=O` [IMB-3-72, 8-((2-hydroxyethyl)amino)-7-(3-methoxybenzyl)-3-methyl-1-(prop-2-yn-1-yl)-3,7-dihydro-1H-purine-2,6-dione] returned an EC50 in data set [1] of 115 µM. This compound gave a CC50 in data set [2] of over 200 µM.

In turn, `COc1cccc(Cn2c(NCCO)nc3c2c(=O)n(C)c(=O)n3Cc2ccccc2)c1` [IMB-3-81, benzyl-8-((2-hydroxyethyl)amino)-7-(3-methoxybenzyl)-1-methyl-3,7-dihydro-1H-purine-2,6-dione] registered an EC50 in data set [1] of 96.2 µM. Moreover, the CC50 in data set [2] is over 200 µM.

In data set [1], `CCOC(=O)c1cccc(Cn2c(NCCO)nc3c2c(=O)n(C)c(=O)n3C)c1` [IMB-4-6, ethyl3-((8-((2-hydroxyethyl)amino)-1,3-dimethyl-2,6-dioxo-1,2,3,6-tetrahydro-7H-purin-7-yl)methyl)benzoate] displayed an EC50 of 2.47 µM. The same compound showed a CC50 in data set [2] of 200 µM.

For the compound `Cn1c(=O)c2c(nc(NCCO)n2Cc2ccsc2)n(C)c1=O` [IMB-4-12, 8-((2-hydroxyethyl)amino)-1,3-dimethyl-7-(thiophen-3-ylmethyl)-3,7-dihydro-1H-purine-2,6-dione], the midpoint of the response in data set [1], the EC50, lay at 3.99 µM. In data set [2], the CC50 was over 200 µM.

As to `COc1cccc(CCn2c(NCCO)nc3c2c(=O)n(C)c(=O)n3C)c1` [IMB-4-13, 8-((2-hydroxyethyl)amino)-7-(3-methoxyphenethyl)-1,3-dimethyl-3,7-dihydro-1H-purine-2,6-dione], in data set [1], the EC50 came out at 15.4 µM. The compound also showed a CC50 in data set [2] of over 200 µM.

`Cn1c(=O)c2c(nc(NCCO)n2Cc2cccc([N+](=O)[O-])c2)n(C)c1=O` [IMB-79]: a half-maximal effect in data set [1] (EC50) was put at 17.2 µM. The compound further gave a CC50 in data set [2] of over 200 µM.

As for `Cn1c(=O)c2c(nc(NCCO)n2Cc2cccc(F)c2)n(C)c1=O` [IMB-80, 7-(3-fluorobenzyl)-8-((2-hydroxyethyl)amino)-1,3-dimethyl-3,7-dihydro-1H-purine-2,6-dione], the EC50 in data set [1] came out at 10.7 µM; in data set [3], 14 µM. Further, the CC50 in data set [2] and in data set [4] was over 288 µM in each case.

In turn, `Cn1c(=O)c2c(nc(NCCO)n2Cc2cccc(Br)c2)n(C)c1=O` [IMB-81, 7-(3-bromobenzyl)-8-((2-hydroxyethyl)amino)-1,3-dimethyl-3,7-dihydro-1H-purine-2,6-dione] showed an EC50 in data set [1] of 2.47 µM. Further, the CC50 in data set [2] was found to be 124 µM.

On to `Cn1c(=O)c2c(nc(NCCO)n2Cc2cccc(F)c2F)n(C)c1=O` [IMB-82, 7-(2,3-difluorobenzyl)-8-((2-hydroxyethyl)amino)-1,3-dimethyl-3,7-dihydro-1H-purine-2,6-dione], for which the concentration giving a half-maximal response (EC50) was found to be 30.4 µM in data set [1] and 69.3 µM in data set [3]. For the same compound, the CC50 in data set [2] and in data set [4] was over 274 µM each time.

In data set [1], `Cn1c(=O)c2c(nc(NCCO)n2Cc2ccc(F)cc2F)n(C)c1=O` [IMB-83, 7-(2,4-difluorobenzyl)-8-((2-hydroxyethyl)amino)-1,3-dimethyl-3,7-dihydro-1H-purine-2,6-dione] displayed an EC50 of 3.15 µM. Further, in data set [2], the CC50 was over 200 µM.

`Cn1c(=O)c2c(nc(NCCO)n2Cc2ccc(C(C)(C)C)cc2)n(C)c1=O` [IMB-84, 7-(4-(tert-butyl)benzyl)-8-((2-hydroxyethyl)amino)-1,3-dimethyl-3,7-dihydro-1H-purine-2,6-dione]: the EC50 was found to be 15.4 µM in data set [1] and 12.3 µM in data set [3]. Also, the CC50 in data set [2] and in data set [4] was over 259 µM each time.

On to `COc1ccc(Cn2c(NCCO)nc3c2c(=O)n(C)c(=O)n3C)cc1` [IMB-88], for which the EC50 came out at 16.5 µM in data set [1] and 23.5 µM in data set [3]. Further, the CC50 in data set [2] and in data set [4] was over 278 µM each time.

Regarding `COc1cccc(Cn2c(N[C@@H](C)CO)nc3c2c(=O)n(C)c(=O)n3C)c1` [IMB-ZH-2, (S)-8-((1-hydroxypropan-2-yl)amino)-7-(3-methoxybenzyl)-1,3-dimethyl-3,7-dihydro-1H-purine-2,6-dione], the results for the EC50 in data set [1] and in data set [3] were 44.7 µM and 82.9 µM, respectively. Further, the CC50 in data set [2] and in data set [4] was over 134 µM each time.

In the case of `NC(=O)c1ncn([C@@H]2O[C@H](CO)[C@@H](O)[C@H]2O)n1` [RBV, Ribavirin, reference compound], the figures for the EC50 in data set [1] and in data set [3] were 26.2 µM and 16.7 µM, respectively.

Source of the values: patent publication US20240352022A1, “GROUP OF IMB-C5 SERIES COMPOUNDS HAVING ANTI-CORONAVIRUS ACTIVITY AND APPLICATION THEREOF” (priority 2021, published 2024).
